Where a name gives a salt, the structure may show the parent alone. Where a SMILES comes first, the peptide text is derived from it.
Key:
[1] = system: rats previously treated by vincristine; experiment: Vincristine model, sound avoidance conditioning (pole climbing test); type: in vivo, rat
Description: The rats were slightly anesthetized by ether, an incision was made into the skin of the skull, and the skull was pierced by means of a dental burr. A metal needle was stereotaxically directed to the lateral ventricle, and then fixed by means of dental cement. Every day of the experiment, the patency of the needle was controlled.
Three days after introducing the needle (recovery from the postoperative shock) the non-anesthetized animals were injected 5 μl of normal saline with vincristine in a dose of 5 μg/kg/day. […] This administration was repeated every day for a period of five days.
Three days after the last administration of vincristine, the animals were chloralized (360 mg/kg), and, starting at the external carotid artery, a permanent floating catheter was retrogradely introduced into a common carotid artery. This catheter left again on the top of the skull, and was fixed by means of dental cement. After two days the animals had recovered from the postoperative shock. […] The steady state was reached on Day 3 after the last administration, and the model was stable for a period of several months. Once this lapse of time passed, a second type of degeneration was observed that affects the white matter, and was certainly due to apoptosis phenomena).
Five days after the last administration of vincristine, the twenty rats were randomly divided into two groups of 10 animals each: • one group of 10 rats received an intracarotid injection of 1 ml/kg/day of normal saline (controls) for a period of 10 days. • one group of 10 rats received 20 mg/kg/day of HCl-Gly-Phe-ProNH2 dissolved in normal saline for a period of 10 days. The injections were given at 9.00 a.m.
During the last five days of treatment, the rats were placed under the common learning conditions of the three models between 10.00 a.m. and 11.00 a.m. (see below).
During the last five days of treatment, at 10.00 a.m. (1 hour after the administration of HCl-Gly-Phe-ProNH2), the animals were placed into a learning cage for sound avoidance conditioning (Conditioning avoidance response). The animals learned to climb a pole first to escape from and then to avoid an electric shock. This method was standardized and quantified in our laboratory (see Le Poncin M., Lafitte J. C., Rapin J. R., Sound Avoidance Conditioning and a Mathematical approach to the description of acquisition performance, Math. Biosciences 59 (1982) 242–268).
For a period of five days, the animals were placed everyday under these learning conditions for a total of ten tests a day. Results are expressed as percentage of adequate responses, and the kinetics of the responses is represented by a multi-exponential maximum curve.
The curve maximum represents the learning capacities. The slope of the curve evaluates the learning speed. The area under the curve (AUC) represents a good evaluation of all conditioning parameters. The maximum value of the area under the curve is 500, if the animals show 100% adequate responses as early as Day 0. In fact, an average area under the curve is calculated per day, what amounts to a maximum value of 100. In the absolute control animals, this average area under the curve is equal to 40+/−4.

[2] = PAMPA
Description: The Parallel Artificial Membrane Permeation Assay system (PAMPA) is a simple and fast method for the prediction of gastrointestinal drug absorption. Drug permeation of biological cell layers is mainly related to passive diffusion processes. The PAMPA method measures the permeation of potential new drugs across an artificial membrane by passive diffusion and allows a classification into low, medium and high absorbers.
The artificial membrane was built up by pipetting a solution of lecithine in organic solvent on a supporting filter material in 96-well plates. For all test compounds, stock solutions of 5 mM were prepared in ethanol. They were then diluted in Tris-buffer (0.05 M, pH 7,4) to a final concentration of 500 μM. Permeation rates of all test compounds were measured in triplicate or quadruplicate. Diffusion time across the artificial membrane was 16 h. For all compounds reference values without phospholipid layer were individually determined. Concentrations in the acceptor compartments were measured by UV difference spectroscopy using a microtiter plate reader Spectramax Plus^384 from Molecular Devices. For each compound the λmax values were determined in a previous run and measurements were performed at this wavelength. The permeation rates are expressed as flux rates, which are calculated according to the following formula: flux (%)=OD (test well)/OD (control well)×100. […] Lucifer Yellow, a non-permeating dye, has been applied to each well postexperimentally and the concentration of the marker measured in a Wallac Victor^2 1420 Multilabel Counter. Wells, in which the concentration of Lucifer Yellow exceeded 1% of the amount detected in the control wells (without artificial membrane) were discarded.

NCC(=O)N[C@@H](Cc1ccccc1)C(=O)N1CCC[C@H]1C(N)=O [HCl-Gly-Phe-ProNH2, glycyl-L-phenylalanyl-L-prolineamide] (H-Gly-Phe-Pro-NH2)
percentage of adequate responses D0 ([1]; vincristine 5 μg/kg/day ICV 5 days, 20 mg/kg/day intracarotid 10 days, learning day D0): 0%
AUC (average area under the learning curve per day) ([1]; vincristine model, 20 mg/kg/day 10 days): **24.8 +/− 3.2
percentage of adequate responses D1 ([1]; vincristine model, 20 mg/kg/day 10 days, learning day D1): 5 +/− 2%
percentage of adequate responses D2 ([1]; vincristine model, 20 mg/kg/day 10 days, learning day D2): **20 +/− 4%
percentage of adequate responses D3 ([1]; vincristine model, 20 mg/kg/day 10 days, learning day D3): **40 +/− 5%
percentage of adequate responses D4 ([1]; vincristine model, 20 mg/kg/day 10 days, learning day D4): **59 +/− 6%
effect on learning parameters ([1]; vincristine model, intracarotid injection treatment): partly restores the learning parameters
PAMPA classification, predicted absorption after peroral application [2]: weakly absorbed

From patent US7129213B2, “Tripeptides and tripeptide derivatives for the treatment of neurodegenerative diseases” (Neurotell AG, priority 2002, dated 2006)
